Test system: blood cells
Assay: Hemolysis of blood cells on blood retention tool (plasma colored red with Hb)
Format: cell-based
Settings: tools of Example 4 / Comparative Example 4; glycine as 5% solution
Description: Blood cell separation was carried out using this tool, and the presence or absence of hemolysis was determined. In the following, unless otherwise stated, the concentration (%) of a hemolysis inhibitor in a hemolysis inhibitor solution is represented by a percentage (unit: (w/v) %) of the weight (unit: g) of the hemolysis inhibitor with respect to the volume (100 ml) of a solvent.
Hemolysis inhibitors were dissolved in solvents (distilled water) beforehand to prepare hemolysis inhibitor solutions shown in Table 1 below. […]
On the glass filter surface of each of the thus-obtained blood retention tools, 100 μl of whole blood (hematocrit: 38%) was dropped to cause the separation of blood cells and plasma and the development of the plasma. Then, after a lapse of 2 minutes, the presence or absence of hemolysis of the blood cells was determined. […]
Blood retention tools (Example 3-1 and 3-2) were produced in the same manner as in Example 1, except that the following development porous membranes (a filter paper and a cellulose acetate membrane) and blood cell separation porous membranes (glass filters) were used and valine was used as the hemolysis inhibitors. […] Using these blood retention tools, blood cell separation was carried out and the presence or absence of hemolysis and the development of blood cells were determined in the same manner as in Examples 1 and 2.

## NCC(=O)O [Gly, glycine]
  hemolysis: occurrence of hemolysis was observed

Source: US20090145840A1, “BLOOD CELL SEPARATION MEMBRANE AND BLOOD RETENTION TOOL USING THE SAME” (ARKRAY, Inc., priority 2003, published 2009)
